Laboratory results reported in patent US4933347A, “Diamidines and bis(imidazolines) for the treatment of and prophylaxis against pneumocystis carinii pneumonia” (University of North Carolina at Chapel Hill, priority 1988, dated 1990).
Values belong to the compound of their own block, whether it stands above or below them.

What was measured:
[1] = Solubility (insoluble, not tested in animals); assay type: physicochemical
Pneumocystis carinii [2] = experiment: Treatment of Pneumocystis carinii pneumonia in Sprague-Dawley rats (extent of disease by histologic score); assay type: in vivo, male Sprague-Dawley rats; settings: for Extent of Disease by Histologic Score: number of animals with score 0.5 / Extent of Disease by Histologic Score: number of animals with score 1 / Extent of Disease by Histologic Score: number of animals with score 2 / Extent of Disease by Histologic Score: number of animals with score 3 / Extent of Disease by Histologic Score: number of animals with score 4: 14 days; for Extent of Disease by Histologic Score: number of animals with score 0.5 / Extent of disease by histologic score (combined): number of animals in scoring group 0.5: 0.5 = <10 cysts found per 2 sections; for Extent of Disease by Histologic Score: number of animals with score 1 / Extent of disease by histologic score (combined): number of animals in scoring group 1: 1 = scattered cysts, <5% of lung involved; for Extent of Disease by Histologic Score: number of animals with score 2 / Extent of disease by histologic score (combined): number of animals in scoring group 2: 2 = scattered cysts; for Extent of Disease by Histologic Score: number of animals with score 2: 5-10% lung involved or small foci of infection; for Extent of Disease by Histologic Score: number of animals with score 3 / Extent of disease by histologic score (combined): number of animals in scoring group 3: 3 = scattered cysts; for Extent of Disease by Histologic Score: number of animals with score 3: 10-50% of lung involved with some intense areas of infection; for Extent of Disease by Histologic Score: number of animals with score 4: 4 = >50% of lung involved with many intense areas of focal infection; for Extent of disease by histologic score (combined): number of animals in scoring group 0.5 / Extent of disease by histologic score (combined): number of animals in scoring group 1 / Extent of disease by histologic score (combined): number of animals in scoring group 2 / Extent of disease by histologic score (combined): number of animals in scoring group 3 / Extent of disease by histologic score (combined): number of animals in scoring group 4: Table XII composite; for Extent of disease by histologic score (combined): number of animals in scoring group 2: 5-10% of lung involved; for Extent of disease by histologic score (combined): number of animals in scoring group 3: 10-50% of lung involved; for Extent of disease by histologic score (combined): number of animals in scoring group 4: 4 = >50% of lung involved; for Efficacy in treating Pneumocystis carinii (words): 2.5 mg/kg
[3] = Toxicity of amidines in rats (standard laboratory procedure); assay type: in vivo
Description: Compounds having the structure represented by Formula I were synthesized in accordance with the appropriate procedures discussed previously. The reaction schemes shown in Charts I-III specifically identify the methodology used to synthesize the compounds of the respective examples. The compounds which were synthesized are shown in Table IA and the elemental analysis and melting points of the compounds are shown in Table IB. Most of the compounds were tested for toxicity in rats using standard laboratory procedure and the results of that toxicity testing are shown in Table XII. The compounds of Examples 31, 32, and 34 were not synthesized but may be synthesized in the general manner discussed previously.

Pneumocystis carinii [4] = settings: in vivo; cited from earlier work

SMILES: N=C(N)c1ccc(OCCOc2ccc(C(=N)N)cc2[N+](=O)[O-])c([N+](=O)[O-])c1 [Example 2]
Solubility (not tested in animals - insoluble) [1]: insoluble

Solubility (not tested in animals - insoluble) [1]: insoluble
SMILES: N=C(N)c1ccc(OCCCCCOc2ccc(C(=N)N)cc2Br)c(Br)c1 [Example 16]

Solubility (not tested in animals - insoluble) [1]: insoluble
SMILES: N=C(N)c1ccc(OCCOc2ccc(C(=N)N)cc2)cc1 [Example 1]

SMILES: N=C(N)c1ccc(NCCCCCNc2ccc(C(=N)N)cc2[N+](=O)[O-])c([N+](=O)[O-])c1 [Example 18]
Extent of Disease by Histologic Score: number of animals with score 0.5 (Pneumocystis carinii [2]; 5 mg/kg i.v. daily): 1 animals | Extent of Disease by Histologic Score: number of animals with score 1 (Pneumocystis carinii [2]; 5 mg/kg i.v. daily): 3 animals | Extent of Disease by Histologic Score: number of animals with score 2 (Pneumocystis carinii [2]; 5 mg/kg i.v. daily): 0 animals | Extent of Disease by Histologic Score: number of animals with score 3 (Pneumocystis carinii [2]; 5 mg/kg i.v. daily): 2 animals | Extent of Disease by Histologic Score: number of animals with score 4 (Pneumocystis carinii [2]; 5 mg/kg i.v. daily): 1 animals | Extent of disease by histologic score (combined): number of animals in scoring group 0.5 (Pneumocystis carinii [2]; tested at 5 mg/kg): 1 animals | Extent of disease by histologic score (combined): number of animals in scoring group 1 (Pneumocystis carinii [2]; tested at 5 mg/kg): 3 animals | Extent of disease by histologic score (combined): number of animals in scoring group 2 (Pneumocystis carinii [2]; tested at 5 mg/kg): 0 animals | Extent of disease by histologic score (combined): number of animals in scoring group 3 (Pneumocystis carinii [2]; tested at 5 mg/kg): 2 animals | Extent of disease by histologic score (combined): number of animals in scoring group 4 (Pneumocystis carinii [2]; tested at 5 mg/kg): 1 animals | Efficacy in treating PCP compared with control (Pneumocystis carinii [2]; compound at 5 mg/kg): better than the control | Efficacy in treating PCP compared with pentamidine (Pneumocystis carinii [2]; compound at 5 mg/kg): less effective than pentamidine | Toxicity of amidines: Effect ([3]; dose as in value, else not given in Table XIII (10 mg/kg test dose)): Acute toxicity - death at 10 mg/kg

SMILES: COc1cc(C(=N)N)ccc1OCCCCOc1ccc(C(=N)N)cc1OC [Example 11]
Extent of Disease by Histologic Score: number of animals with score 0.5 (Pneumocystis carinii [2]; 5 mg/kg i.v. daily): 3 animals | Extent of Disease by Histologic Score: number of animals with score 1 (Pneumocystis carinii [2]; 5 mg/kg i.v. daily): 4 animals | Extent of Disease by Histologic Score: number of animals with score 2 (Pneumocystis carinii [2]; 5 mg/kg i.v. daily): 1 animals | Extent of Disease by Histologic Score: number of animals with score 3 (Pneumocystis carinii [2]; 5 mg/kg i.v. daily): 0 animals | Extent of Disease by Histologic Score: number of animals with score 4 (Pneumocystis carinii [2]; 5 mg/kg i.v. daily): 0 animals | Extent of disease by histologic score (combined): number of animals in scoring group 0.5 (Pneumocystis carinii [2]; tested at 5 mg/kg): 3 animals | Extent of disease by histologic score (combined): number of animals in scoring group 1 (Pneumocystis carinii [2]; tested at 5 mg/kg): 4 animals | Extent of disease by histologic score (combined): number of animals in scoring group 2 (Pneumocystis carinii [2]; tested at 5 mg/kg): 1 animals | Extent of disease by histologic score (combined): number of animals in scoring group 3 (Pneumocystis carinii [2]; tested at 5 mg/kg): 0 animals | Extent of disease by histologic score (combined): number of animals in scoring group 4 (Pneumocystis carinii [2]; tested at 5 mg/kg): 0 animals | Efficacy in treating PCP compared with control (Pneumocystis carinii [2]; compound at 5 mg/kg): significantly better, at one half the dose, than the control | Toxicity of amidines: Effect ([3]; rat, in vivo, 5 mg/kg): None

SMILES: COc1cc(C2=NCCN2)ccc1OCCCOc1ccc(C2=NCCN2)cc1OC [Example 44]
Efficacy in treating Pneumocystis carinii (words) (Pneumocystis carinii [2]): very effective in treating Pneumocystis carinii | Extent of Disease by Histologic Score: number of animals with score 0.5 (Pneumocystis carinii [2]; 2.5 mg/kg i.v. daily): 6 animals | Extent of Disease by Histologic Score: number of animals with score 1 (Pneumocystis carinii [2]; 2.5 mg/kg i.v. daily): 2 animals | Extent of Disease by Histologic Score: number of animals with score 2 (Pneumocystis carinii [2]; 2.5 mg/kg i.v. daily): 0 animals | Extent of Disease by Histologic Score: number of animals with score 3 (Pneumocystis carinii [2]; 2.5 mg/kg i.v. daily): 0 animals | Extent of Disease by Histologic Score: number of animals with score 4 (Pneumocystis carinii [2]; 2.5 mg/kg i.v. daily): 0 animals | Efficacy in treating Pneumocystis carinii (words) (Pneumocystis carinii [2]; listed as Compound 44): very good at one fourth the dose level of pentamidine | Extent of disease by histologic score (combined): number of animals in scoring group 0.5 (Pneumocystis carinii [2]; tested at 2.5 mg/kg): 6 animals | Extent of disease by histologic score (combined): number of animals in scoring group 1 (Pneumocystis carinii [2]; tested at 2.5 mg/kg): 2 animals | Extent of disease by histologic score (combined): number of animals in scoring group 2 (Pneumocystis carinii [2]; tested at 2.5 mg/kg): 0 animals | Extent of disease by histologic score (combined): number of animals in scoring group 3 (Pneumocystis carinii [2]; tested at 2.5 mg/kg): 0 animals | Extent of disease by histologic score (combined): number of animals in scoring group 4 (Pneumocystis carinii [2]; tested at 2.5 mg/kg): 0 animals | Efficacy in treating PCP compared with pentamidine (Pneumocystis carinii [2]; compound at 2.5 mg/kg): much better than pentamidine at only one fourth the dose | Toxicity of amidines: Effect ([3]; rat, in vivo, 2.5 mg/kg): no toxicity

SMILES: N=C(N)c1ccc(NCCCCCNc2ccc(C(=N)N)cc2)cc1 [Example 17]
Extent of Disease by Histologic Score: number of animals with score 0.5 (Pneumocystis carinii [2]; 10 mg/kg i.v. daily): 1 animals | Extent of Disease by Histologic Score: number of animals with score 1 (Pneumocystis carinii [2]; 10 mg/kg i.v. daily): 2 animals | Extent of Disease by Histologic Score: number of animals with score 2 (Pneumocystis carinii [2]; 10 mg/kg i.v. daily): 3 animals | Extent of Disease by Histologic Score: number of animals with score 3 (Pneumocystis carinii [2]; 10 mg/kg i.v. daily): 1 animals | Extent of Disease by Histologic Score: number of animals with score 4 (Pneumocystis carinii [2]; 10 mg/kg i.v. daily): 0 animals | Efficacy in treating PCP compared with pentamidine (Pneumocystis carinii [2]; 10 mg/kg unless otherwise noted): better than or equal to pentamidine | Extent of disease by histologic score (combined): number of animals in scoring group 0.5 (Pneumocystis carinii [2]; 10 mg/kg): 1 animals | Extent of disease by histologic score (combined): number of animals in scoring group 1 (Pneumocystis carinii [2]; 10 mg/kg): 2 animals | Extent of disease by histologic score (combined): number of animals in scoring group 2 (Pneumocystis carinii [2]; 10 mg/kg): 3 animals | Extent of disease by histologic score (combined): number of animals in scoring group 3 (Pneumocystis carinii [2]; 10 mg/kg): 1 animals | Extent of disease by histologic score (combined): number of animals in scoring group 4 (Pneumocystis carinii [2]; 10 mg/kg): 0 animals | Efficacy in treating PCP compared with related compounds of the series (Pneumocystis carinii [2]; effect of chain length or substituent): least effective | Deaths by day 13 ([3]; rat, in vivo): 2 deaths

SMILES: N=C(N)c1ccc(OCCCCCOc2ccc(C(=N)N)cc2Cl)c(Cl)c1 [Example 25]
Extent of Disease by Histologic Score: number of animals with score 0.5 (Pneumocystis carinii [2]; 2.5 mg/kg i.v. daily): 0 animals | Extent of Disease by Histologic Score: number of animals with score 1 (Pneumocystis carinii [2]; 2.5 mg/kg i.v. daily): 0 animals | Extent of Disease by Histologic Score: number of animals with score 2 (Pneumocystis carinii [2]; 2.5 mg/kg i.v. daily): 0 animals | Extent of Disease by Histologic Score: number of animals with score 3 (Pneumocystis carinii [2]; 2.5 mg/kg i.v. daily): 4 animals | Extent of Disease by Histologic Score: number of animals with score 4 (Pneumocystis carinii [2]; 2.5 mg/kg i.v. daily): 4 animals | Extent of disease by histologic score (combined): number of animals in scoring group 0.5 (Pneumocystis carinii [2]; tested at 2.5 mg/kg): 0 animals | Extent of disease by histologic score (combined): number of animals in scoring group 1 (Pneumocystis carinii [2]; tested at 2.5 mg/kg): 0 animals | Extent of disease by histologic score (combined): number of animals in scoring group 2 (Pneumocystis carinii [2]; tested at 2.5 mg/kg): 0 animals | Extent of disease by histologic score (combined): number of animals in scoring group 3 (Pneumocystis carinii [2]; tested at 2.5 mg/kg): 4 animals | Extent of disease by histologic score (combined): number of animals in scoring group 4 (Pneumocystis carinii [2]; tested at 2.5 mg/kg): 4 animals | Toxicity of amidines: Effect ([3]; rat, in vivo, 2.5 mg/kg): None

SMILES: CN1CCN=C1c1ccc(OCCCCOc2ccc(C3=NCCN3C)cc2)cc1 [Example 41]
Extent of Disease by Histologic Score: number of animals with score 0.5 (Pneumocystis carinii [2]; 2.5 mg/kg i.v. daily): 0 animals | Extent of Disease by Histologic Score: number of animals with score 1 (Pneumocystis carinii [2]; 2.5 mg/kg i.v. daily): 0 animals | Extent of Disease by Histologic Score: number of animals with score 2 (Pneumocystis carinii [2]; 2.5 mg/kg i.v. daily): 2 animals | Extent of Disease by Histologic Score: number of animals with score 3 (Pneumocystis carinii [2]; 2.5 mg/kg i.v. daily): 4 animals | Extent of Disease by Histologic Score: number of animals with score 4 (Pneumocystis carinii [2]; 2.5 mg/kg i.v. daily): 2 animals | Extent of disease by histologic score (combined): number of animals in scoring group 0.5 (Pneumocystis carinii [2]; tested at 2.5 mg/kg): 0 animals | Extent of disease by histologic score (combined): number of animals in scoring group 1 (Pneumocystis carinii [2]; tested at 2.5 mg/kg): 0 animals | Extent of disease by histologic score (combined): number of animals in scoring group 2 (Pneumocystis carinii [2]; tested at 2.5 mg/kg): 2 animals | Extent of disease by histologic score (combined): number of animals in scoring group 3 (Pneumocystis carinii [2]; tested at 2.5 mg/kg): 4 animals | Extent of disease by histologic score (combined): number of animals in scoring group 4 (Pneumocystis carinii [2]; tested at 2.5 mg/kg): 2 animals | Toxicity of amidines: Effect ([3]; rat, in vivo, 2.5 mg/kg): no toxicity

SMILES: N=C(N)c1ccc(OCCCOc2ccc(C(=N)N)cc2Br)c(Br)c1 [dibromopropamidine]
Known effectiveness against Pneumocystis carinii pneumonia (Pneumocystis carinii [4]): some effectiveness against PCP
